Experimental data: patent US20250325531A1, “TREATMENT OF SYSTOLIC DYSFUNCTION” (MyoKardia, Inc., priority 2024, published 2025)

Experiment: Single ascending oral dose pharmacokinetics in healthy volunteers (plasma and urine, LC MS/MS)
Assay type: in vivo, human
Settings: for dose recovered in urine: 0-48 hours urine
Text: This example describes the first-in-human study of Compound I. Based on its mechanism of action, Compound I may offer a targeted therapy for patients with DCM caused by genetic or nongenetic mechanisms. The study was a randomized, double-blind, placebo-controlled, sequential group, single-ascending (oral) dose study in healthy subjects aged 18-55 years. Eight dosing cohorts, each comprising eight healthy subjects, were enrolled. Within each cohort, subjects were randomized 6:2 to Compound I: placebo.
Subjects were resident at the clinical site for up to 5 days and 4 nights, from Day-1 (the day before dosing) to Day 4, and received a single dose of Compound I or placebo on Day 1. ECG telemetry was initiated 1 hour predose and continued through 48 hours postdose (Day 3). Any subject with a predose resting HR ≥80 beats per minute was considered ineligible and not treated. […] Subjects returned for a safety follow-up visit 7 days (+1 day) after dosing.
All randomized study subjects received either Compound I or matching placebo as a single oral dose after a fasting period of at least 6 hours. Compound I drug substance is a crystalline, free-base, synthetic molecule with a molecular weight of 435.4 g/mol.
Compound I was provided as a powder for oral suspension. Placebo was provided as calcium carbonate powder. Both treatments were dosed orally as a suspension. The suspension was made using Ora-Plus® suspending vehicle (Perrigo) and a cherry syrup flavoring vehicle (Humco), mixed 50% to 50%. The suspension was followed by approximately 100 mL water. The suspension was made up within 14 days from the time in which it was dosed which was consistent with the stability data on the suspension. The suspension was made up so the volume administered to the subjects who received Compound I was the same at 20 mL.
Each subject received a dose according to the cohort in which they were enrolled. Cohorts were enrolled sequentially, with each cohort receiving an escalated dose of Compound I. The doses administered were 3 mg, 10 mg, 25 mg, 50 mg, 100 mg, 175 mg, 350 mg, and 525 mg, respectively.
The concentrations of Compound I in human plasma and urine were quantitated by high performance liquid chromatography with tandem mass spectrometric detection (LC MS/MS) (Biological sample analysis study report Alturas AD17-726). Plasma samples were extracted by protein precipitation with acetonitrile containing internal standard MYK-5654. The calibration curves were linear over concentration range of 0.500 to 1000 ng/mL with a lower limit of quantification (LLOQ) of 0.500 ng/mL.
The PK Population included all subjects who received Compound I. Blood samples were collected for PK assessments. The actual timing of the samples may have been modified and/or up to an additional 2 samples may have been requested by the SRC after review of the data from previous cohorts. It was important that PK sampling occurred as closely as possible to the scheduled time (+10%). Both blood and urine samples were used for PK assessments.
In addition, for subjects who received placebo, a single plasma sample near the predicted tmax of Compound I was evaluated to confirm the lack of circulating Compound I. Plasma concentration data for Compound I was summarized using descriptive statistics, including mean, standard deviation (SD), median, minimum, and maximum values, and percent coefficient of variation. Other PK parameters included (but were not limited to) Cmax, tmax, AUC, t1/2, and MRT. Additionally, the apparent terminal-phase terminal half-life was calculated. The dose proportionality of AUC and Cmax was explored.

## Cn1cc(S(=O)(=O)[C@@](C)(F)C2CCN(C(=O)Nc3ccon3)CC2)c(C(F)F)n1 [Compound I, (R)-4-(1-((3-(difluoromethyl)-1-methyl-1H-pyrazol-4-yl)sulfonyl)-1-fluoroethyl)-N-(isoxazol-3-yl) piperidine-1-carboxamide]
350 mg
  dose recovered in urine: approximately 6.0%
  AUC0-24 Geometric Mean: 44703.88 ng·h/mL
  AUC0-48 Median: 66430.88 ng·h/mL
  AUC0-last Geometric Mean: 73185.05 ng·h/mL
  AUC0-last Median: 76161.9 ng·h/mL
  AUC0-∞ Geometric Mean: 73626.42 ng·h/mL
  AUC0-∞ Median: 76241.22 ng·h/mL
  CL/F Geometric Mean: 4.75 L/h
  CL/F Mean: 4.95 L/h
  CL/F Median: 4.75 L/h
  Extrapolation Geometric Mean: 0.37%
  Extrapolation Mean: 0.60%
  Extrapolation Median: 0.43%
  Half-Life Lambda Z Mean: 14.66 h
  Mean Residence Time Median: 22.73 h
  Tmax Geometric Mean: 4.84 h
  Tmax Mean: 4.95 h
525 mg
  dose recovered in urine: ~8.6%
  AUC0-24 Median: 38212.84 ng·h/mL
  AUC0-48 Geometric Mean: 56964.59 ng·h/mL
  AUC0-last Geometric Mean: 68111.84 ng·h/mL
  AUC0-∞ Geometric Mean: 68514.68 ng·h/mL
  CL/F Geometric Mean: 7.66 L/h
  CL/F Mean: 8.07 L/h
  CL/F Median: 7.64 L/h
  Cmax Geometric Mean: 2294.46 ng/mL
  Cmax Mean: 2350.00 ng/mL
  Extrapolation Geometric Mean: 0.22%
  Extrapolation Mean: 0.59%
  Extrapolation Median: 0.23%
  Half-Life Lambda Z Geometric Mean: 14.70 h
  Half-Life Lambda Z Median: 13.77 h
  Tmax Geometric Mean: 4.94 h
  Tmax Mean: 4.97 h
3 mg
  AUC0-48 Geometric Mean: 676.32 ng·h/mL
  AUC0-last Median: 713.41 ng·h/mL
  AUC0-∞ Geometric Mean: 722.23 ng·h/mL
  CL/F Geometric Mean: 4.15 L/h
  CL/F Mean: 4.26 L/h
  CL/F Median: 4.22 L/h
  Extrapolation Geometric Mean: 2.71%
  Extrapolation Mean: 2.78%
  Extrapolation Median: 2.82%
  Half-Life Lambda Z Geometric Mean: 11.10 h
10 mg
  CL/F Geometric Mean: 2.99 L/h
  CL/F Mean: 3.06 L/h
  CL/F Median: 2.88 L/h
  Cmax Mean: 139.17 ng/mL
  Extrapolation Geometric Mean: 1.59%
  Extrapolation Mean: 1.90%
  Extrapolation Median: 2.24%
  Half-Life Lambda Z Mean: 13.36 h
  Mean Residence Time Geometric Mean: 21.06 h
  Tmax Geometric Mean: 4.80 h
  Tmax Mean: 4.85 h
25 mg
  AUC0-last Geometric Mean: 6924.51 ng·h/mL
  AUC0-last Mean: 7161.62 ng·h/mL
  CL/F Geometric Mean: 3.55 L/h
  CL/F Mean: 3.69 L/h
  CL/F Median: 3.32 L/h
  Extrapolation Geometric Mean: 1.45%
  Extrapolation Mean: 1.72%
  Extrapolation Median: 1.92%
  Half-Life Lambda Z Geometric Mean: 13.14 h
  Half-Life Lambda Z Mean: 13.28 h
  Mean Residence Time Geometric Mean: 20.60 h
  Mean Residence Time Median: 20.07 h
  Tmax Geometric Mean: 4.64 h
  Tmax Mean: 4.67 h
50 mg
  AUC0-last Geometric Mean: 11075.03 ng·h/mL
  AUC0-last Median: 11185.34 ng·h/mL
  AUC0-∞ Geometric Mean: 11177.07 ng·h/mL
  AUC0-∞ Median: 11204.30 ng·h/mL
  CL/F Geometric Mean: 4.47 L/h
  CL/F Mean: 4.53 L/h
  CL/F Median: 4.46 L/h
  Extrapolation Geometric Mean: 0.46%
  Extrapolation Mean: 0.91%
  Extrapolation Median: 0.46%
  Mean Residence Time Geometric Mean: 20.79 h
  Mean Residence Time Mean: 20.98 h
  Tmax Geometric Mean: 4.66 h
  Tmax Mean: 4.69 h
100 mg
  AUC0-48 Median: 21561.98 ng·h/mL
  AUC0-last Geometric Mean: 21734.19 ng·h/mL
  AUC0-last Median: 22401.00 ng·h/mL
  CL/F Geometric Mean: 4.69 L/h
  CL/F Mean: 4.76 L/h
  CL/F Median: 5.33 L/h
  Extrapolation Geometric Mean: 0.36%
  Extrapolation Mean: 5.48%
  Extrapolation Median: 0.14%
  Half-Life Lambda Z Geometric Mean: 11.08 h
  Tmax Mean: 4.50 h
175 mg
  AUC0-48 Median: 32704.35 ng·h/mL
  AUC0-last Geometric Mean: 38235.62 ng·h/mL
  CL/F Geometric Mean: 4.57 L/h
  CL/F Mean: 4.66 L/h
  CL/F Median: 4.45 L/h
  Cmax Geometric Mean: 1301.37 ng/mL
  Cmax Mean: 1316.17 ng/mL
  Extrapolation Geometric Mean: 0.14%
  Extrapolation Mean: 0.17%
  Extrapolation Median: 0.16%
  Half-Life Lambda Z Mean: 15.83 h
  Mean Residence Time Geometric Mean: 24.44 h
  Mean Residence Time Median: 24.43 h
  Tmax Geometric Mean: 5.07 h
  Tmax Mean: 5.11 h
350 mg + 525 mg
  AUC0-24 Median: 38537.03 ng·h/mL
  AUC0-∞ Mean: 74358.88 ng·h/mL
  CL/F Geometric Mean: 6.04 L/h
  CL/F Mean: 6.51 L/h
  CL/F Median: 6.10 L/h
  Extrapolation Geometric Mean: 0.29%
  Extrapolation Mean: 0.59%
  Extrapolation Median: 0.32%
  Half-Life Lambda Z Geometric Mean: 14.51 h
  Mean Residence Time Mean: 24.28 h
  Tmax Geometric Mean: 4.89 h
  Tmax Mean: 4.96 h
All doses, 95% CI 0.8358-0.9417
  dose proportionality slope (power model): 0.8888
